How the values were obtained:
FAK = FAK (Homo sapiens, UniProt Q05397); assay: Immunoblotting cellular kinase phosphorylation assay, NCI-H2228 cells; format: cell-based; conditions: 4 hours treatment; read-out: FAK phosphorylation of NCI-H2228 cell line IC50
Method: NSCLC cell line H2228 (harboring endogenous EML4-ALK fusion gene) was cultured in RPMI medium supplemented with 10% fetal bovine serum and 100 U/mL of penicillin/streptomycin. Ba/F3 and NIH3T3 cells stably expressing ROS1, or TRKA, or TRKB, or TRKC (WT or mutant) were cultured as mentioned above. […] Cells were collected after treatment and lysed in RIPA buffer (50 mM Tris, pH 7.4, 150 mM NaCl, 1% NP-40, 0.5% Deoxycholate, 0.1% SDS) supplemented with 10 mM EDTA, 1× Halt protease and phosphatase inhibitors (Thermo Scientific). Protein lysates (approximately 20 μg) was resolved on 4-12% Bolt Bis-Tris precasted gels with MES running buffer (Life Technologies), transferred to nitrocellulose membranes using Trans-Blot Turbo Transfer System (Bio-Rad) and detected with antibodies targeting phosphorylated phosphorylated ROS1 and total ROS1 (Cell Signaling Technology), phosphorylated TRK A/B (Cell Signaling Technology), total TRKA antibody (Santa Cruz Biotechnology), phosphorylated SRC Y416 (Cell Signaling Technology), total SRC (Cell Signaling Technology), phosphorylated FAK Y576/577 (Cell Signaling Technology), total FAK (Cell Signaling Technology), phosphorylated paxillin Y118 (Cell Signaling Technology), total paxillin (Cell Signaling Technology), phosphorylated EGFR and total EGFR, CD44, and Tubulin (Sigma). […]

IRR = molecular target: T1, IRR (Homo sapiens, UniProt P14616); assay: Biochemical kinase assay (Reaction Biology); conditions: 10 μM ATP
T1 construct: purchased Reaction Biology Corporation (contract assay)
T1 sequence (P14616 27-1297): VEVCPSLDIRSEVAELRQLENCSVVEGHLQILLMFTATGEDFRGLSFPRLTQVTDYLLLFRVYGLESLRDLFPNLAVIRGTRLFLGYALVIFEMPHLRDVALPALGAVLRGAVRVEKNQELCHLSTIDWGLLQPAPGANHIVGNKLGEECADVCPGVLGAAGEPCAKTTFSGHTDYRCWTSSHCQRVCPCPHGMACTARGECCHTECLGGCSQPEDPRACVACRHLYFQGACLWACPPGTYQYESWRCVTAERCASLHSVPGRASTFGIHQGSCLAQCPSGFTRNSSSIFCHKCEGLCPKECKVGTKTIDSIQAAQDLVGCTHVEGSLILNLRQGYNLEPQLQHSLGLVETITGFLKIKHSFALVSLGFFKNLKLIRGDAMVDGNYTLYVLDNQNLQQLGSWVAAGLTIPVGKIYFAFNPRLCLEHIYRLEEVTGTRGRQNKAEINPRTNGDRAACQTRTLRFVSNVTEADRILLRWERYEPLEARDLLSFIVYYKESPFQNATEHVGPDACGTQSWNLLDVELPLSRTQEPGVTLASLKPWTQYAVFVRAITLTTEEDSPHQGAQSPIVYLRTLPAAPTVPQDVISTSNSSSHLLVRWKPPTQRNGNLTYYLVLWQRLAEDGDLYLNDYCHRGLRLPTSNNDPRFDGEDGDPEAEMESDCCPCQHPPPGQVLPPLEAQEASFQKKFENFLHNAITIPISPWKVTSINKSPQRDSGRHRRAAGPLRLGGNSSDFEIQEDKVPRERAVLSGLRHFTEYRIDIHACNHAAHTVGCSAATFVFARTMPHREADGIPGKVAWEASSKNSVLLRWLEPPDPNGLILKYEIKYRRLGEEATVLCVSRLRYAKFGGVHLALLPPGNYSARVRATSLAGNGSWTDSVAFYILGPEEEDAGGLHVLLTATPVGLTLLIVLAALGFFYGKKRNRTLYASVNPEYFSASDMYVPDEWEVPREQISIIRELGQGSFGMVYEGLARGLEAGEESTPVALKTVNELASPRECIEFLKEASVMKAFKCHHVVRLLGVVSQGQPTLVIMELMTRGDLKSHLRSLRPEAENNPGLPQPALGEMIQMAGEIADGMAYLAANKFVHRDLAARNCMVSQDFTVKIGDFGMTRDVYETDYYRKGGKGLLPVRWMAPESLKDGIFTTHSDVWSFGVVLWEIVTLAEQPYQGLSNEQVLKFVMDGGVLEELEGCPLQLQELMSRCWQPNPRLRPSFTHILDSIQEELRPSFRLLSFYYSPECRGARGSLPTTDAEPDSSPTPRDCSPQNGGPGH
Method: Specific kinase/substrate pairs along with required cofactors were prepared in reaction buffer; 20 mM Hepes pH 7.5, 10 mM MgCl2, 1 mM EGTA, 0.02% Brij35, 0.02 mg/ml BSA, 0.1 mM Na3VO4, 2 mM DTT, 1% DMSO (for specific details of individual kinase reaction components see Supplementary Table 2). Compounds were delivered into the reaction, followed ˜20 minutes later by addition of a mixture of ATP (Sigma, St. Louis Mo.) and ^33P ATP (Perkin Elmer, Waltham Mass.) to a final concentration of 10 μM. Reactions were carried out at room temperature for 120 min, followed by spotting of the reactions onto P81 ion exchange filter paper (Whatman Inc., Piscataway, N.J.). […] IC50 values and curve fits were obtained using Prism (GraphPad Software).

FAK, sequence (Q05397 whole entry, the tested form may be a part): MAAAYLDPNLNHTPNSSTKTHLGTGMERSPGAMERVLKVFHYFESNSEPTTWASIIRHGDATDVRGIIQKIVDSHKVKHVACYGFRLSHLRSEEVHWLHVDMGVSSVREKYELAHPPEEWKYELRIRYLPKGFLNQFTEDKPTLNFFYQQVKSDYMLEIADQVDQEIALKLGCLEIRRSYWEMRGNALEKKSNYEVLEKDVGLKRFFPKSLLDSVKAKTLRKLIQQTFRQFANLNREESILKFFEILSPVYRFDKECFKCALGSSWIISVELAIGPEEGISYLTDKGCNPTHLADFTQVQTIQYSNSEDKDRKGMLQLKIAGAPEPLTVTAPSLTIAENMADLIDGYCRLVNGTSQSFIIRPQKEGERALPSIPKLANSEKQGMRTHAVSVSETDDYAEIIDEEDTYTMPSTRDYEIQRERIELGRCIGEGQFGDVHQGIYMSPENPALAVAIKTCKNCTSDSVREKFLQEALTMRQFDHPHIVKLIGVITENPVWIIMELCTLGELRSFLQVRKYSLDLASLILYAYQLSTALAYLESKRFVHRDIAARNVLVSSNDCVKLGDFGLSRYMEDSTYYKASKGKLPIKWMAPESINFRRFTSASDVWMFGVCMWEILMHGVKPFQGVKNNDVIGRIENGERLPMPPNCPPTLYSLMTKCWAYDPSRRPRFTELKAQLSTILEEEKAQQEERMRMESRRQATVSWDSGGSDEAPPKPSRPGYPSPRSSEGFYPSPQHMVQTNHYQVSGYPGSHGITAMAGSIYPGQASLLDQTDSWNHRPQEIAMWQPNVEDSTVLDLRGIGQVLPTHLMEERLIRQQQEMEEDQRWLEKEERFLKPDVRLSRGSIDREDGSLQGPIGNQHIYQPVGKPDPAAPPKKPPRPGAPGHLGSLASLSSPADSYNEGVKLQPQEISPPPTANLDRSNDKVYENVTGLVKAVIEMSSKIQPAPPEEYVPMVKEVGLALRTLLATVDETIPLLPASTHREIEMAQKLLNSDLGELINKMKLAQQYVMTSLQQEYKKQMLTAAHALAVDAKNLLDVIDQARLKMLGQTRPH

## C[C@H]1CNC(=O)c2cnn3ccc(nc23)N[C@H](C)c2cc(F)ccc2O1 [Compound 1, (7S,13R)-11-fluoro-7,13-dimethyl-6,7,13,14-tetrahydro-1,15-ethenopyrazolo[4,3-f][1,4,8,10]benzoxatriazacyclotridecin-4(5H)-one]
FAK
  IC50: 100 nM
IRR
  IC50: 18.1 nM

— US11452725B2, “Chiral diaryl macrocycles and uses thereof” (TURNING POINT THERAPEUTICS, INC., priority 2015, dated 2022)
